The values below come from the Deep4Chem optical property database.

The data set can be described thus: solvent given as SMILES.
[1] abbreviates: in O=P(c1ccccc1)(c1ccccc1)c1ccccc1Oc1ccccc1P(=O)(c1ccccc1)c1ccccc1.

Several values for one entry are separate records, joined by “and”; a condition that tells them apart may be missing. Identical values can stand only once.

For `COc1ccc2nc(-c3ccccc3)c(=O)oc2c1`, for the setting “in c1ccccc1”, the emission maximum is on record as 448 nm.
Where the note is “in Cc1ccccc1”, `N#Cc1cc(-n2c3ccccc3c3ccccc32)nc(-n2c3ccccc3c3ccccc32)n1` had an emission maximum of 471 nm.
`CCC1=C(CC)c2cccc3c2c(cc2nc4ccccc4nc23)O1` registered an emission maximum (in ClCCl) of 563 nm.
Take `Cc1cc2nc3[nH]c(=O)n(C)c(=O)c3nc2cc1C`: the emission maximum (in CC#N) is 436 nm.
On to `CCC1(CC)c2cc(N(c3ccccc3)c3ccccc3)ccc2-c2c1c1c(c3c2C(CC)(CC)c2cc(N(c4ccccc4)c4ccccc4)ccc2-3)C(CC)(CC)c2cc(N(c3ccccc3)c3ccccc3)ccc2-1`, for which the emission maximum (in C1CCOC1) is reported as 390 nm; the emission maximum (in CC#N) worked out at 404 nm; the emission maximum (in CC(C)=O) is reported as 395 nm; the emission maximum (in CCCCCC) came out at 382 nm; the emission maximum (in Cc1ccccc1) is 386 nm.
Consider `COC(=O)c1cc(=O)n(C)c2cc(-c3ccc4c(c3)OCCO4)sc12`, for which the emission maximum by setting is: (in CC#N) 478 nm; (in ClCCl) 473 nm.
Take `Cc1ccc(C2=C3C=C(I)C=[N+]3[B-](F)(F)n3cccc32)cc1`: the emission maximum reads like this: (in C1CCCCC1) 540 nm; (in CC#N) 546 nm; (in CCO) 547 nm; (in CCOC(C)=O) 543 nm; (in CO) 546.5 nm; (in OCC(F)(F)F) 538.5 nm.
Consider `CCCCCCC1(CCCCCC)c2cc(-c3nc(-c4ccc5c(c4)C(CCCCCC)(CCCCCC)c4cc(N6c7ccccc7Oc7ccccc76)ccc4-5)nc(-c4ccc5c(c4)C(CCCCCC)(CCCCCC)c4cc(N6c7ccccc7Oc7ccccc76)ccc4-5)n3)ccc2-c2ccc(N3c4ccccc4Oc4ccccc43)cc21`, for which the emission maximum reads like this: (in C1CCOC1) 616 nm; (in CCCCCC) 485 nm; (in Cc1ccccc1) 525 nm; (in ClCCl) 621 nm.
In the case of `CCCCCCN(CCCCCC)c1ccc(C#Cc2ccc(C(F)(F)F)cc2)cc1`, the emission maximum by setting is: (in CO) 456 nm; (in ClCCl) 440 nm.
`Oc1ccccc1-c1nc(-c2ccccc2)c2ccccn12` showed an emission maximum (in C1CCCCC1) of 479 nm; an emission maximum (in CC#N) of 480 nm; an emission maximum (in CO) of 474 nm; an emission maximum (in ClCCl) of 484 nm; an emission maximum (in O) of 481 nm.
On to `CCCCCCc1ccc2c3c(ccc2c1)O[B-](F)(F)[N+](c1cc([N+]2=Cc4c(ccc5cc(CCCCCC)ccc45)O[B-]2(F)F)cc([N+]2=Cc4c(ccc5cc(CCCCCC)ccc45)O[B-]2(F)F)c1)=C3`, for which the emission maximum (in C1CCOC1) was found to be 490 nm, the emission maximum (in CC#N) stood at 495 nm, the emission maximum (in Cc1ccccc1) was 493 nm and the emission maximum (in ClCCl) stood at 495 nm.
In the case of `CCN(CC)c1ccc(-c2cc3c(s2)c(C(=O)OC)cc(=O)n3C)cc1`, the emission maximum was 543 nm (in C1CCOC1); 605 nm (in CC#N); 516 nm (in CCO); 604 nm (in CN(C)C=O); 503 nm (in CO); 615 nm (in CS(C)=O). The emission maximum reads like this: (in Cc1ccccc1) 504 nm; (in ClC(Cl)Cl) 545 nm; (in ClCCl) 562 nm.
The compound `CCCCC1(c2ccccc2)Nc2c(-c3ccc(N(c4ccccc4)c4ccccc4)cc3)ccc(-c3ccc(N(c4ccccc4)c4ccccc4)cc3)c2N=C1c1ccccc1` (stereo not drawn) registered an emission maximum (in C1CCOC1) of 554 nm; an emission maximum (in CC#N) of 567 nm; an emission maximum (in CCCCCC) of 521 nm; an emission maximum (in CN(C)C=O) of 578 nm; an emission maximum (in Cc1ccccc1) of 533 nm; an emission maximum (in ClC(Cl)Cl) of 547 nm.
`Cc1cc(N2c3ccccc3C(C)(C)c3ccccc32)ccc1-c1cc(-c2ccc(N3c4ccccc4C(C)(C)c4ccccc43)cc2C)ncn1`: the emission maximum reads like this: (in Cc1ccccc1) 477 nm; under setting [1], 477 nm.
For `CC1(C)CC(=O)c2c(F)c(F)c(F)c(F)c2N1`, the emission maximum is listed as 449 nm (in CC#N) and 479 nm (in CCO).
As to `COc1ccc(-c2c(-c3ccc(C)cc3)c3n(c2-c2ccc(C)cc2)[B-](F)(F)[N+]2=C(c4ccc(C)cc4)C(/C=C/C(=O)OC4CC[C@@]5(C)C(=CC[C@H]6[C@@H]7CC[C@H]([C@H](C)CCCC(C)C)[C@@]7(C)CC[C@@H]65)C4)=C(c4ccc(C)cc4)C2=N3)cc1` (stereo partly drawn), for the setting “in ClC(Cl)Cl”, the emission maximum is reported as 702 nm.
With `CCN(CC)c1ccc2cc3c([o+]c2c1)/C(=C/Nc1ccccc1)CCC3`, the emission maximum (in CCO) amounted to 647 nm, the emission maximum (in ClC(Cl)Cl) worked out at 642 nm and the emission maximum (in ClCCl) amounted to 647 nm.
As to `c1ccc2c(c1)c1ccccc1n2-c1ccc(-c2nnc(-c3ccc(-n4c5ccccc5c5ccccc54)cc3)o2)cc1`, the emission maximum (in Cc1ccccc1) is 386 nm and the emission maximum under setting [1] is 414 nm.
Under “in Cc1ccccc1”, `CC(C)[Si](C#Cc1c2ccc(C(C)(C)C)cc2c(C#C[Si](C(C)C)(C(C)C)C(C)C)c2ccc(C(C)(C)C)cc12)(C(C)C)C(C)C` showed an emission maximum of 461 nm.
In the case of `CCCCCOc1cc2oc(=O)c3c4occc4c4ccc5cccc6c(c1)c2c3c4c56`, where the note is “in C1CCOC1”, the emission maximum turned out to be 433 nm.
`CN(C)c1ccc2[c](c1)[Ge]([CH3])([CH3])[C]1=CC(=[N+](C)C)C=CC1=C2` registered an emission maximum (in O) of 634 nm.
Turning to `Oc1ccccc1-c1nc2c3ccccc3c3ccccc3c2n1-c1ccccc1`, for the setting “in Cc1ccccc1”, the emission maximum was 369 nm.
On to `COc1cc(C#Cc2ccccc2)c(C#Cc2ccccc2)cc1OC`, for which the emission maximum (in CC#N) was 380 nm.
`COC(=O)/C(C#N)=c1\s/c(=c2/s/c(=C(/C#N)C(=O)OC)c3cc(-c4ccc(C(F)(F)F)cc4)sc23)c2sc(-c3ccc(C(F)(F)F)cc3)cc12` gave an emission maximum (in Cc1ccccc1) of 625 nm.
Still for that read-out and setting: next, `Cc1ccc2c(c1)c1cc(C)ccc1n2-c1c(C#N)c(-n2c3ccc(C)cc3c3cc(C)ccc32)c(-n2c3ccc(C)cc3c3cc(C)ccc32)c(C#N)c1-n1c2ccc(C)cc2c2cc(C)ccc21`: 561 nm.
The compound `COc1ccc(C2=N/C(=C\c3ccccc3)C(=O)N2)cc1OC` had an emission maximum (in C1COCCO1) of 455 nm.
`CCOC(=O)COc1ccc(C(c2c(C)[nH]c3ccccc23)c2c(C)[nH]c3ccccc23)cc1`: the emission maximum runs as follows: (in C1CCCCC1) 327 nm; (in CC#N) 340 nm; (in CO) 344 nm; (in O) 350 nm.
For the compound `c1ccc(-c2cc3cc4cccc5c(-c6ccccc6)cc6cc7cccc2c7c3c6c45)cc1`, the emission maximum (in ClCCl) was determined as 442 nm.
On to `O=C(c1ccccc1)c1cc2ccc1CCc1ccc(cc1-c1ccc(N(c3ccccc3)c3ccccc3)cc1)CC2`, for which the emission maximum reads like this: (in Cc1ccccc1) 492 nm; (in c1cc(-n2c3ccccc3c3ccccc32)cc(-n2c3ccccc3c3ccccc32)c1) 481.13 nm.
For the compound `Cc1cc(C)c([B-]2(c3c(C)cc(C)cc3C)[O+]=P(c3ccccc3)(c3ccccc3)c3ccsc3-c3sccc32)c(C)c1`, the emission maximum (in C1CCOC1) came out at 429 nm.
In turn, `COc1ccc(C#Cc2ccccc2C#Cc2ccc(OC)cc2)cc1` returned an emission maximum (in CC#N) of 380 nm.
Regarding `COc1ccc(-c2nc(-c3ccc(OC)cc3C)nc(-c3ccc(N4c5ccccc5C5(c6ccccc6-c6ccccc65)c5ccccc54)cc3C)n2)c(C)c1`, the emission maximum turned out to be 467 nm (in Cc1ccccc1) and 469 nm under setting [1].
`N#Cc1nc2c3ccc(-n4c5ccccc5c5ccccc54)cc3c3cc(-n4c5ccccc5c5ccccc54)ccc3c2nc1C#N` returned an emission maximum (in C1COCCO1) of 568.06 nm; an emission maximum (in CCCCCC) of 469.61 nm; an emission maximum (in Cc1ccccc1) of 531 nm; an emission maximum (in ClC(Cl)Cl) of 612.69 nm; an emission maximum (in O=P(c1ccccc1)(c1ccccc1)c1cccc(-c2cc(-n3c4ccccc4c4ccccc43)cc(-n3c4ccccc4c4ccccc43)c2)n1) of 560 nm.
In turn, `Nc1ccc(C#Cc2ccc3ccc4ccc(C#Cc5ccc(NS(=O)(=O)c6ccc([N+](=O)[O-])cc6[N+](=O)[O-])cc5)c5ccc2c3c45)cc1` had an emission maximum (in CO) of 552 nm.
For `CCCCC1(CCCC)c2cc(-c3ccc(C=C4C(=O)c5ccccc5C4=O)cc3)ccc2-c2ccc(-c3ccc(C=C4C(=O)c5ccccc5C4=O)cc3)cc21`, the emission maximum runs as follows: (in C1CCOC1) 532 nm; (in CC(C)=O) 564 nm; (in CCCCCC) 465 nm; (in CS(C)=O) 596 nm; (in Cc1ccccc1) 492 nm; (in ClC(Cl)Cl) 527 nm.
`CCCC1=Cc2nc1ccc1[nH]c(cc1CCOC)c1nc(ccc3[nH]c2cc3CCC)C(CCOC)=C1` displayed an emission maximum (in Cc1ccccc1) of 642 nm.
Still for that read-out and setting: next, `CC(C)(C)c1ccc2c(c1)c1cc(C(C)(C)C)ccc1n2-c1ccc(S(=O)(=O)c2cccc(S(=O)(=O)c3ccc(-n4c5ccc(C(C)(C)C)cc5c5cc(C(C)(C)C)ccc54)cc3)c2)cc1`: 422 nm.
Under “in CO”, `Cc1cc(C)c(B(c2cc(-c3ccc(C(C)(C)C)cc3)sc2-c2sc(-c3ccc(C(C)(C)C)cc3)cc2P(=O)(c2ccccc2)c2ccccc2)c2c(C)cc(C)cc2C)c(C)c1` showed an emission maximum of 572 nm.
For the compound `O=c1c2cc(Cl)ccc2nc2n1[B-](F)(F)[n+]1ccccc1-2`, the emission maximum runs as follows: (in CC#N) 439 nm; (in ClCCl) 444 nm.
In the case of `CCCCCCCCCCCCN1C(=O)c2c(c3ccc4cc(-c5ccccc5)c(OC)cc4c3c3c2ccc2cc(-c4ccccc4)c(OC)cc23)C1=O`, under “in ClCCl”, the emission maximum turned out to be 526 nm.
As for `CN(C)c1ccc2nc(-c3ccccc3)sc2c1`, the emission maximum runs as follows: (in C1CCCCC1) 393 nm; (in CC#N) 474 nm and 475 nm; (in CC(C)O) 468 nm and 488.03 nm; (in CO) 484 nm and 483 nm; (in CS(C)=O) 486 nm and 486.82 nm; (in ClC(Cl)Cl) 442 nm and 443 nm. Also, where the note is “in c1ccccc1”, the emission maximum was 429 nm and 441.38 nm.
The compound `CCCCCCCCCCCCOc1cc(C(=O)Nc2ccc(-c3ccc4c(c3)C(=O)c3ccccc3-4)cc2)cc(OCCCCCCCCCCCC)c1OCCCCCCCCCCCC` came in with an emission maximum (in C1CCOC1) of 529 nm.
With `Cc1ccc(-c2ccc(/C=C/c3cccs3)cn2)nc1`, the emission maximum (in CC#N) came out at 422 nm.
